Assay results reported in US11998619B2, “Compound, antiinflammatory drug comprising the compound and cyclooxygenase-2 inhibitor comprising the compound” (priority 2018, dated 2024).

Experiments:
COX-2 [1] = experiment: Western blotting of COX-2 expression after LPS treatment; format: cell-based; details: Western blot, FIG. 4
COX-2 [2] = experiment: Immunofluorescence of COX-2 in LPS-treated cells; details: FIG. 3
Procedure: Anti-inflammatory properties were evaluated based on in vitro experiments. Specifically, cells were treated with lipopolysaccharide (LPS) as an inflammation-inducing substance, thereby to induce an inflammatory reaction. […] Then, immunofluorescence images thereof were taken to identify COX-2 inhibitory ability thereof in the cells.
The green fluorescence indicates the presence of COX-2 which is induced by an inflammatory reaction in cells via treatment with LPS.

cyclooxygenase-2 (COX-2) = experiment: Western blot of COX-2 in tissue at the cerebral infarction site, MCAO-R model; format: in vivo, Sprague Dawley (SD) rats; details: FIG. 5C
[3] = test system: MCAO-R stroke animal model; experiment: Cerebral infarction in MCAO-R stroke animal model (TTC staining); format: in vivo, Sprague Dawley (SD) rats; details: 24 hours after reperfusion; FIG. 5B

SMILES | COX-2 expression inhibition (COX-2 band) (COX-2 [1]) | COX-2 inhibitory ability (green fluorescence, COX-2 positive cells) (COX-2 [2]) | inhibition of COX-2 protein amount at cerebral infarction site (cyclooxygenase-2 (COX-2)) | inhibition of cerebral infarction [3]
O=C(O)CCC(=O)c1ccc(-c2ccccc2)cc1 [fenbufen] | do not achieve COX-2 inhibition effect |  |  | 
CC1=C(CC(=O)O)c2cc(F)ccc2/C1=C\c1ccc([S+](C)[O-])cc1 (stereo not shown) [sulindac] | has COX-2 inhibition ability | excellent COX-2 inhibition ability |  | 
O=C(O)c1cc(-c2ccc(F)cc2F)ccc1O [diflunisal] | do not achieve COX-2 inhibition effect | slightly lower than that in cells (LPS) treated with only LPS | exhibit inhibition of COX-2 activity | significantly inhibit the cerebral infarction
